Key:
[1] = tested on: foals, yearlings and adult horses; experiment: Example Five: calcium feeding trials at various stages of development; assay type: in vivo, horse
Description: A number of trials were conducted on horses throughout various stages of development fed with varying levels of calcium. The first two trials were conducted on twelve foals over a nine month period. The trial began when the foals were aged three months. […] Each foal was fed 2.5 g of Calcium a day within a balanced diet for a period of three months. The Calcium dosage was then increased to 5.0 g a day for a further period of six months as the foals average weight had increased to 240 kg.
The third trial comprised a group of ten yearlings with average weight 425 kg body. The yearlings were fed 7.5 g of Calcium a day over a period of ten weeks. The fourth trial was conducted on adult horses with average body weight of 500 kg aged 18+ months. Each adult horse was fed 10.0 g of Calcium per day.

[2] = tested on: thoroughbred yearlings; experiment: Example Three: inorganic versus chelated copper with chelated zinc in feed supplement; assay type: in vivo, horse; conditions: 100 mg/day copper and 300 mg/day chelated zinc in 100 g/day supplement, ten weeks, grass high in molybdenum
Description: A trial was conducted on ten thoroughbred yearlings (six colts and four fillies) using optimum levels of copper and zinc. The horses were divided into two groups with five horses in each group. The trials were conducted over a period of ten weeks. During this period the horses were stabled, each horse was handwalked for one hour a day and put to grass for three hours a day.
The copper used in the feed supplement for the first group of five horses was inorganic copper, copper sulfate whilst the copper used in the oat-balancing feed supplement for the second group was chelated copper. The horses has an average body weight of 425 kg. The horses were fed a combined diet of Ryegrass Hay, Rolled Irish Oats, Cooked Flaxseed and the feed supplement.
In trial one, 100 g of the oat balancing feed supplement was fed to each horse daily. There was 100 mg of inorganic copper in present in the oat balancing feed supplement.
Group 1: 100 mg/day Inorganic Copper & 300 mg/day Chelated Zinc
In the second group the five horses were fed the same combined diet however the copper present in the feed supplement was chelated copper. Again there was 100 mg of copper present in 100 g of the oat balancing feed supplement.
Group 2: 100 mg/day Chelated Copper & 300 mg/day Chelated Zinc

[3] = tested on: poor performing racehorses; conditions: six anaemic racehorses, within a matter of weeks; cited from earlier work
[4] = tested on: horses; experiment: Example One: amino acid feeding trial with varied lysine; PCV, haemoglobin, coat colour, racecourse performance; assay type: in vivo, horse; conditions: 15 g/day lysine with 5 g/day methionine and 5 g/day threonine
Description: Lysine, methionine and threonine are essential amino acids. Trials were conducted on eleven horses (eight geldings and three fillies) where the horses were randomly split into three groups. Two groups contained four horses and the third group contained three horses. The horses varied in age between three and eight years old with an average body weight of 500 kg. The Packed Cell Volumes (PCVs) and haemoglobin levels of each horse were tested. Visual observations such as coat colour and racecourse performances were also monitored. In these Example all three amino acids were administered to the horses together as all three amino acids are essential. The quantities of methionine and threonine were constant for each group whilst the quantity of lysine was varied between the groups. Oats are deficient in lysine therefore it is necessary to boost the horses intake of lysine while maintaining a constant level of methionine and threonine
Quantities of Amino Acid Administered to Horses Daily

[5] = tested on: horses; experiment: Example Four: magnesium supplementation, Stress Tetany and performance; assay type: in vivo, horse
Source text: Magnesium is considered to be an essential daily mineral in equine diets. A deficiency of magnesium in the diet in conjunction with any condition that will produce stress can lead to Stress Tetany. An example of a stress-causing condition is transportation of the horse over long distances. […] Some weeks later the same horse was transported to another location. The journey lasted approximately four hours.
Trials conducted where the quantity of magnesium introduced into the horse was varied from 2 g/day of magnesium oxide to 4 g/day of magnesium oxide.

[Ca+2] [Calcium]
bone development, limb formation and weight gain ([1]; 2.5 to 10.0 g/day Calcium according to age): clinically adequate bone development, correct limb formation and normal weight gain
Average weight at 6 months ([1]; Foals 3-6 months, 2.5 g/day Calcium, 118 Kg at 3 months): 240 Kg at 6 months
Average weight at 12 months ([1]; Foals 6-12 months, 5.0 g/day Calcium, 240 Kg at 6 months): 375 Kg at 12 months
Average weight at 18 months ([1]; Yearlings 12-18 months, 7.5 g/day Calcium, 375 Kg at 12 months): 475 Kg at 18 months

O=S(=O)([O-])[O-].[Cu+2] [Inorganic Copper, copper sulfate]
coat colour [2]: poor coat colour
red cell production [2]: decreased red cell production
thrive [2]: lack of thrive

N[C@@H](Cc1cc(I)c(Oc2cc(I)c(O)c(I)c2)c(I)c1)C(=O)O [Thyroxine]
red cell parameters [3]: all elevated

NCCCC[C@H](N)C(=O)O [lysine]
coat colour and racecourse performance [4]: optimum coat colour and racecourse performance
PCV levels ([4]; average of horses, 500 kg): > 42 per cent per liter
haemoglobin levels ([4]; average of horses, 500 kg): > 14 g per deciliter

[O]=[Mg] [magnesium oxide]
performance ([5]; 4 g/day of magnesium oxide (varied from 2 g/day to 4 g/day)): optimum performance
temperament, weight and coat colour ([5]; magnesium oxide 4 g/day): improvement in the temperament of the horse was observed in conjunction with weight gain and better coat colour

Reference: patent US7601373B2, “Equine feed product” (priority 2002, dated 2009)
